Residues, ends and D or L forms follow the SMILES beside them.
Experiments:
TcdB [1] = test system: TcdB
TcdB1 = TcdB1 (Clostridioides difficile, UniProt P18177)
CHO-K1 cells = assay type: cell-based
TcdB [2] = target: TcdB (Clostridioides difficile, UniProt P18177); details: cited from earlier work
Chain of TcdB (Clostridioides difficile, UniProt P18177) (P18177 whole entry, looked up): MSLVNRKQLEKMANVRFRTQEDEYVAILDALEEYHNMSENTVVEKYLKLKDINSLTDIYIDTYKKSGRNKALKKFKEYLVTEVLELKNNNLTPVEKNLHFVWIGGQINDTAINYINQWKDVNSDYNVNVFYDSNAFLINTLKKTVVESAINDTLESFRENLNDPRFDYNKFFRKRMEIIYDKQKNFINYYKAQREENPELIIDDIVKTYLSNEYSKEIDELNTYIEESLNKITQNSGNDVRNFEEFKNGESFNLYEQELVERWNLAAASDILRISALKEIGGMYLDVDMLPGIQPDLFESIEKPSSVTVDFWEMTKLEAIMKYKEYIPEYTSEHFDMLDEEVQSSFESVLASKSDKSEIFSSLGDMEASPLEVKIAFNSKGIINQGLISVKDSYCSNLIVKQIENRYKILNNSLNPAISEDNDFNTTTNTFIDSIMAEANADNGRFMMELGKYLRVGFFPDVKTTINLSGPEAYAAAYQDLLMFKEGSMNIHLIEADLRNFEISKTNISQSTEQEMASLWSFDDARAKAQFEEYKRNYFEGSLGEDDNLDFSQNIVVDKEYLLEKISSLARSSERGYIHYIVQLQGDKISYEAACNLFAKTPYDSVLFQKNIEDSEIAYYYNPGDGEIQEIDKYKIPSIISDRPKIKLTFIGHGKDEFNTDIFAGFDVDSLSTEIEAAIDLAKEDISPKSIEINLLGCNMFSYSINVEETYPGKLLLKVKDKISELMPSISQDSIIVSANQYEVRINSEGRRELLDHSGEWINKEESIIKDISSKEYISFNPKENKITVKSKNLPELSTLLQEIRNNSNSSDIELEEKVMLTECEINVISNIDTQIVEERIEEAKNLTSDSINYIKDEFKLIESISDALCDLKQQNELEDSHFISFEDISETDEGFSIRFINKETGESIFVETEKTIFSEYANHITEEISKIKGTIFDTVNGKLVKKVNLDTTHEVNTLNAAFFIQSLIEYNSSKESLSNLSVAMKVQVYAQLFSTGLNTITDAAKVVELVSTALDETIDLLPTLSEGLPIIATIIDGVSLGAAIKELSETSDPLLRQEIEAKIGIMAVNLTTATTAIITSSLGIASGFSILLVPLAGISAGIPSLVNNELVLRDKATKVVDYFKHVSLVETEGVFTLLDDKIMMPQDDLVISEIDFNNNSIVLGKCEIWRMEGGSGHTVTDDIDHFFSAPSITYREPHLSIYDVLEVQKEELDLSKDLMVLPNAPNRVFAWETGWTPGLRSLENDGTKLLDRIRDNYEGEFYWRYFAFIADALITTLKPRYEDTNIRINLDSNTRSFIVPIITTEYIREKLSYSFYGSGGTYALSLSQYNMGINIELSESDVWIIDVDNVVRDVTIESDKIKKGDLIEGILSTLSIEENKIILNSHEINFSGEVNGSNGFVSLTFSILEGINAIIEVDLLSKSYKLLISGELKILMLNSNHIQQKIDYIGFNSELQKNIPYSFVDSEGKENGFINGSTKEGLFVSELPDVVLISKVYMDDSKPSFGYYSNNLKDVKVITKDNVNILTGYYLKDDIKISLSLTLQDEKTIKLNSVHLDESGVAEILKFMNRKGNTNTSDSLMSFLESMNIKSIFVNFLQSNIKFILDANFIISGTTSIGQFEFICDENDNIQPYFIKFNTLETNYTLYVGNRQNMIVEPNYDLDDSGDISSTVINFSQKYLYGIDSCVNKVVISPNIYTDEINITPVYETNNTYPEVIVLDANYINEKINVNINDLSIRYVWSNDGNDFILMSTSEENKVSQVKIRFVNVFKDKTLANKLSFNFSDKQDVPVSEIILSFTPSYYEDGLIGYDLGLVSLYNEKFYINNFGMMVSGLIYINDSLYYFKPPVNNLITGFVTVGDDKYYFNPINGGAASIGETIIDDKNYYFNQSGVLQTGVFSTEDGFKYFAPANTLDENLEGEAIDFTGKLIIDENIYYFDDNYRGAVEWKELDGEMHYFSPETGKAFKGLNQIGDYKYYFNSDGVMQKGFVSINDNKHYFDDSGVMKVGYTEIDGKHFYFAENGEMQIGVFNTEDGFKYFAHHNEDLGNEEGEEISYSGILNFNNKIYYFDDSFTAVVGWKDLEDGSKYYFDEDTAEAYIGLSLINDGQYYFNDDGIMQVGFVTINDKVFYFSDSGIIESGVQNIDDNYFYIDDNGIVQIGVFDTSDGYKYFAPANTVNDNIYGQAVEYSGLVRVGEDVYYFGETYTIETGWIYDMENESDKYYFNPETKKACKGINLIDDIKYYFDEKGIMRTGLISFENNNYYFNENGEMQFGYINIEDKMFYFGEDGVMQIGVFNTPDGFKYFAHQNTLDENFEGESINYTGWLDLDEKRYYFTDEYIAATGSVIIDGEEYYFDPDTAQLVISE

Chain of TcdB1 (P18177 2-2366 limits assumed): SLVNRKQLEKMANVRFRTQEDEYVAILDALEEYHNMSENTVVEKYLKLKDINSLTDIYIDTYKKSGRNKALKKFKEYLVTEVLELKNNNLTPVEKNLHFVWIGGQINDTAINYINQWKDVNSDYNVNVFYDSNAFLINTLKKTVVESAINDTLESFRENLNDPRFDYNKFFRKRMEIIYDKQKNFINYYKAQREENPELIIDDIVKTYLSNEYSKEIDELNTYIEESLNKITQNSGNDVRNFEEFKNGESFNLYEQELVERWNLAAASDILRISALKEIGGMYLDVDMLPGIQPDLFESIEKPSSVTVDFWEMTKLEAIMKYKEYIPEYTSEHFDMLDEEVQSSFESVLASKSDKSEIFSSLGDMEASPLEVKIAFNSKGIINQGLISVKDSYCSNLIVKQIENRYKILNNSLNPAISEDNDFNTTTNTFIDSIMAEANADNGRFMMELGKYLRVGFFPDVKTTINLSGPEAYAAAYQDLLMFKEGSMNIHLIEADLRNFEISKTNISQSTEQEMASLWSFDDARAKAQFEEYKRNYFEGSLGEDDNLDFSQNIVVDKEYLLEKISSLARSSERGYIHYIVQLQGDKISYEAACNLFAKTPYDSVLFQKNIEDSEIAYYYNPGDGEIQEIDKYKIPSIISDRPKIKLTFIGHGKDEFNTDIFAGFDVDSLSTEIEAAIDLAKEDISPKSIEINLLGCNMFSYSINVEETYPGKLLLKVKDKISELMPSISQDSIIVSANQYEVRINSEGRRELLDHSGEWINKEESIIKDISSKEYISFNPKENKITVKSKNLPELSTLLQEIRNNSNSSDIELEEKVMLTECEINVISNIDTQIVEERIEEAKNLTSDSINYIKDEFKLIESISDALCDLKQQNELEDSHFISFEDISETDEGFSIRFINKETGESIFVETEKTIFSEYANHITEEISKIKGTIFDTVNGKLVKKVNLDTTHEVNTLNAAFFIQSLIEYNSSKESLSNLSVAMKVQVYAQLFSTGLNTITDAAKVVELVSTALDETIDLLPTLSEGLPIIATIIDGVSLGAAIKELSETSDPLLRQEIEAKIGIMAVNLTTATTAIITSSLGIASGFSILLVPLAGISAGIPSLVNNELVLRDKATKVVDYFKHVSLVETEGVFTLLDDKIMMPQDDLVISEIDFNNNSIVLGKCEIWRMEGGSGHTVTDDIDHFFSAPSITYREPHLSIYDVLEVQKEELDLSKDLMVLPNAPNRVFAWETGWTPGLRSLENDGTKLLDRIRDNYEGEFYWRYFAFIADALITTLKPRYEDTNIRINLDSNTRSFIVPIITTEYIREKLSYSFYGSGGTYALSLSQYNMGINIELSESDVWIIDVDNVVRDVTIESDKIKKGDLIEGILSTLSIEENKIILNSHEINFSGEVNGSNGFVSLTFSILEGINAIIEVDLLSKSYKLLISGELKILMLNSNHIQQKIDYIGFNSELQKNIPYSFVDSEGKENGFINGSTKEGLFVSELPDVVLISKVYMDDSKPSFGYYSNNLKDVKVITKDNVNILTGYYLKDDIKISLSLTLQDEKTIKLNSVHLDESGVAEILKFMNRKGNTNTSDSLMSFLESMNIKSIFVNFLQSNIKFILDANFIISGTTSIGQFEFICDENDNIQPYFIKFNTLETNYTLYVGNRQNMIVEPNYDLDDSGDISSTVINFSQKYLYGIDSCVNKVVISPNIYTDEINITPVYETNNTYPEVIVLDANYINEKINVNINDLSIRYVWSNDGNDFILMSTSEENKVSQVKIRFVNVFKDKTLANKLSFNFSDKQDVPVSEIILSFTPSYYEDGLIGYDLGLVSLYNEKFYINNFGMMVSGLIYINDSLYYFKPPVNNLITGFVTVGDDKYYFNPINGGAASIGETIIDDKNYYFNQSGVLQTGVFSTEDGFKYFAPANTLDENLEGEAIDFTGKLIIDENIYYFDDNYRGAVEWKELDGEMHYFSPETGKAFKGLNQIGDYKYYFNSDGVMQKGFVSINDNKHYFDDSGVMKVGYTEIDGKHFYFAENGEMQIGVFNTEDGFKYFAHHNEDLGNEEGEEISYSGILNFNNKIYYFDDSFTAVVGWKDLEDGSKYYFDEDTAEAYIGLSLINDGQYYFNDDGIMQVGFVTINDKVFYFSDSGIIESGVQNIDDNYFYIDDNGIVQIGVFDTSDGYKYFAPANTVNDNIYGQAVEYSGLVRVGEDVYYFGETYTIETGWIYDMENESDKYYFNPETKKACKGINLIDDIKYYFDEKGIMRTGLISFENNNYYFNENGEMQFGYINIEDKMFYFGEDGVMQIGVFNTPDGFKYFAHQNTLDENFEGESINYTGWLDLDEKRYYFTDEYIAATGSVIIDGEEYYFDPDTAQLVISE

Molecule: CC(C)[C@H](NC(=O)[C@H](CCCCN)NC(=O)[C@H](CCCNC(=N)N)NC(=O)[C@H](CCCCN)NC(=O)[C@H](CCCCN)NC(=O)[C@H](CCCCN)NC(=O)[C@@H]1CCCN1C(=O)[C@H](CCC(N)=O)NC(=O)[C@H](CO)NC(=O)[C@H](Cc1c[nH]c2ccccc12)NC(=O)[C@H](CCC(=O)O)NC(=O)[C@@H](NC(=O)[C@H](Cc1c[nH]c2ccccc12)NC(=O)[C@H](Cc1c[nH]c2ccccc12)NC(=O)[C@@H](NC(=O)[C@H](CCC(=O)O)NC(=O)[C@H](Cc1c[nH]c2ccccc12)NC(=O)[C@H](Cc1c[nH]c2ccccc12)NC(=O)[C@@H](NC(=O)[C@H](CCC(=O)O)NC(=O)[C@@H](N)CCCCN)[C@@H](C)O)[C@@H](C)O)[C@@H](C)O)C(=O)O [Pep-1, reference compound] (H-KETWWETWWTEWSQPKKKRKV-OH)
- effect of known CPPs on the cytotoxicity of TcdB (TcdB [1]): did not appear to alter TcdB cytotoxicity

Molecule: CC(C)C[C@H](NC(=O)[C@H](CCCCN)NC(=O)[C@H](CC(N)=O)NC(=O)[C@H](C)NC(=O)[C@H](CC(C)C)NC(=O)[C@@H](NC(=O)[C@H](CCCCN)NC(=O)[C@H](CC(=O)O)NC(=O)[C@H](CCCCN)NC(=O)[C@H](Cc1ccccc1)NC(=O)[C@@H](NC(=O)[C@@H](N)CC(N)=O)C(C)C)[C@@H](C)O)C(=O)N[C@@H](CO)C(=O)N[C@@H](Cc1ccccc1)C(=O)N[C@@H](CC(N)=O)C(=O)N[C@@H](Cc1ccccc1)C(=O)N[C@@H](CO)C(=O)N[C@@H](CC(=O)O)C(=O)N[C@@H](CCCCN)C(=O)O [PepB1] (H-NVFKDKTLANKLSFNFSDK-OH)
- protection from cytotoxicity of TcdB1 over a range of toxin concentrations (TcdB1): did not inhibit the cytotoxicity
- protection from cytotoxicity of TcdB2 over a range of toxin concentrations (TcdB2): did not inhibit the cytotoxicity

Molecule: CC[C@H](C)[C@H](NC(=O)[C@H](CCCCN)NC(=O)[C@H](CC(=O)O)NC(=O)[C@H](CO)NC(=O)[C@@H](NC(=O)[C@@H](NC(=O)[C@H](CC(N)=O)NC(=O)CNC(=O)[C@H](CCCCN)NC(=O)[C@H](Cc1ccccc1)NC(=O)[C@@H](NC(=O)[C@@H](N)CC(N)=O)C(C)C)[C@@H](C)O)[C@@H](C)CC)C(=O)N[C@@H](CO)C(=O)N[C@@H](Cc1ccccc1)C(=O)N[C@@H](CC(N)=O)C(=O)N[C@@H](Cc1ccccc1)C(=O)N[C@@H](CO)C(=O)N[C@@H](CC(=O)O)C(=O)N[C@@H](CCCCN)C(=O)O [PepB2]
- increase of the 50% toxic concentration (TC50) of TcdB2 (TcdB2): 200 fold
- protection from cytotoxicity of TcdB2 over a range of toxin concentrations (TcdB2): protects CHO-K1 cells
- impact on TcdB cytotoxicity, PepB2 alone at 25 μM (TcdB [1]): minimal impact
- inhibition of TcdB cytotoxicity, PepB2 combined with methyl cholate (TcdB [1]): strong inhibition

Molecule: N=C(N)NCCC[C@H](NC(=O)CN)C(=O)N[C@@H](CCCCN)C(=O)N[C@@H](CCCCN)C(=O)N[C@@H](CCCNC(=N)N)C(=O)N[C@@H](CCCNC(=N)N)C(=O)N[C@@H](CCC(N)=O)C(=O)N[C@@H](CCCNC(=N)N)C(=O)N[C@@H](CCCNC(=N)N)C(=O)N[C@@H](CCCNC(=N)N)C(=O)N1CCC[C@H]1C(=O)N1CCC[C@H]1C(=O)N[C@@H](CCC(N)=O)C(=O)O [TAT, reference compound]
- effect of known CPPs on the cytotoxicity of TcdB (TcdB [1]): did not appear to alter TcdB cytotoxicity

Molecule: CC[C@H](C)[C@H](NC(=O)[C@H](CCCCN)NC(=O)[C@H](CCCCN)NC(=O)[C@H](C)NC(=O)[C@H](CC(C)C)NC(=O)[C@H](C)NC(=O)[C@H](C)NC(=O)[C@H](CC(C)C)NC(=O)[C@H](C)NC(=O)[C@H](CCCCN)NC(=O)[C@H](CC(C)C)NC(=O)[C@H](CC(N)=O)NC(=O)[C@@H](NC(=O)[C@H](CCCCN)NC(=O)CNC(=O)[C@H](CC(C)C)NC(=O)[C@H](CC(C)C)NC(=O)[C@H](Cc1ccc(O)cc1)NC(=O)CNC(=O)[C@H](C)N)[C@@H](C)CC)C(=O)N[C@@H](CC(C)C)C(=O)O [transportan 10, reference compound]
- effect of known CPPs on the cytotoxicity of TcdB (TcdB [1]): did not appear to alter TcdB cytotoxicity

Molecule: DKFSNSNKDKISFGNVTFI [Scramble 9]
- Anti-TcdB activity of scrambled PepB2 peptides (TcdB [1]): found to have inhibitory activity

Molecule: FKDNNSIIFDVKGTNFSSK [Scramble 8]
- Anti-TcdB activity of scrambled PepB2 peptides (TcdB [1]): found to have inhibitory activity

Molecule: KPPIKNLITGFTTIGDDKYYF [Peptide 9]
- inhibitory activity against TcdB1 (percent of viable cells) (TcdB1): weaker inhibitory activity
- inhibitory activity against TcdB2 (percent of viable cells) (TcdB2): weaker inhibitory activity

Molecule: NVFKGKTISDKISFNFSDK [PepB2-N6K]
- cell penetrating activities of mutant peptides (CHO-K1 cells): cell penetrating activities were reduced

Molecule: NVFKGNTLANKLSFNFSDK [PepB1-DK5-6GN]
- cell penetrating activities of mutant peptides (CHO-K1 cells): cell penetrating activities were gained

Molecule: NVFKSNTISDKISFNFSDK [PepB2-G5S]
- cell penetrating activities of mutant peptides (CHO-K1 cells): Cell penetrating activities also remained
- dextran delivery compared with PepB2 (CHO-K1 cells): this is not the case for dextran delivery
- transport of dsRNA into cells compared with PepB2 (CHO-K1 cells): more efficiently transports dsRNA into cells than PepB2

Molecule: SFNKMSIDFKDIKKLSLGYIMS [TcdA 1774-1795]
- TcdB inhibitory activity? (TcdB [1]): YES
- dose dependence of inhibition of TcdB (TcdB [1]): Dose-dependent inhibition
- inhibitory activity against TcdB toxin (TcdB [1]): found to have inhibitory activity against TcdB toxin

Molecule: SNKNFSGIVFTNFDIDKSK [Scramble 12]
- Anti-TcdB activity of scrambled PepB2 peptides (TcdB [1]): found to have inhibitory activity

Molecule: methyl cholate [reference compound]
- impact on TcdB cytotoxicity, methyl cholate alone (TcdB [1]): minimal impact
- effect on the thermal stability of TcdB (TcdB [2]): increase the thermal stability of TcdB

Source: patent US10709758B2 (priority 2015, dated 2020)
